Experimental data from patent US6083957A, “Heterocyclic compounds and their preparation and use” (Novo Nordisk A/S, priority 1996, dated 2000).

How the values were obtained:
[1] = molecular target: muscarinic acetylcholine receptors; assay: inhibition of specific binding of 3H-Oxotremorine-M (3H-Oxo), rat cortex homogenate; parameters: species or system male Wistar rats; details: 1.0 nM 3H-Oxotremorine, pH 7.4, 30 min, 25° C
Source text: The pharmacological properties of the compounds of the invention can be illustrated by determining their capability to inhibit the specific binding of ^3 H-Oxotremorine-M (^3 H-Oxo). Birdsdall N. J. M., Hulme E. C., and Burgen A. S. V. (1980). "The Character of Muscarinic Receptors in Different Regions of the Rat Brain". Proc. Roy. Soc. London (Series B) 207,1.
The inhibitory effects of compounds on ^3 H-Oxo binding reflects the affinity for muscarinic acetylcholine receptors.
All preparations are performed at 0-4° C. unless otherwise indicated. Fresh cortex (0.1-1 g) from male Wistar rats (150-250 g) is homogenized for 5-10 s in 10 ml 20 mM Hepes pH: 7.4, with an Ultra-Turrax homogenizer. The homogenizer is rinsed with 10 ml of buffer and the combined suspension centrifuged for 15 min. at 40,000×g. The pellet is washed three times with buffer. In each step the pellet is homogenized as before in 2×10 ml of buffer and centrifuged for 10 min. at 40,000×g.
The final pellet is homogenized in 20 mM Hepes pH: 7.4 (100 ml per g of original tissue) and used for binding assay. Aliquots of 0.5 ml is added 25 ul of test solution and 25 ul of ^3 H-Oxotremorine (1.0 nM, final concentration) mixed and incubated for 30 min. at 25° C. Non-specific binding is determined in triplicate using arecoline (1 ug/ml, final concentration) as the test substance. After incubation samples are added 5 ml of ice-cold buffer and poured directly onto Whatman GF/C glass fiber filters under suction and immediately washed 2 times with 5 ml of ice-cold buffer. The amount of radioactivity on the filters are determined by conventional liquid scintillation counting. Specific binding is total binding minus non specific binding.
Test substances are dissolved in 10 ml water (if necessary heated on a steam-bath for less than 5 min.) at a concentration of 2.2 mg/ml. 25-75% inhibition of specific binding must be obtained before calculation of IC50.
The test value will be given as IC50 (the concentration (nM) of the test substance which inhibits the specific binding of ^3 H-Oxo by 50%).
(§1) IC50 =(applied test substance concentration) [formula] where Co is specific binding in control assays and Cx is the specific binding in the test assay. (The calculations assume normal mass-action kinetics).

[2] = molecular target: T1, subtype of muscarinic receptors (M1-site) (Rattus norvegicus, UniProt P08482); assay: inhibition of 3H-PRZ (pirenzepine, [N-methyl-3H]) binding to rat cerebral cortex membranes; parameters: species or system male Wistar rats; details: 1.0 nM 3H-Pirenzepine, pH 7.4, 60 min, 20° C, read-out: IC50, 3H-Pz
T1 construct: from tissue; host or cells: rat cerebral cortex membranes (male Wistar rats)
T1 sequence (P08482 1-460): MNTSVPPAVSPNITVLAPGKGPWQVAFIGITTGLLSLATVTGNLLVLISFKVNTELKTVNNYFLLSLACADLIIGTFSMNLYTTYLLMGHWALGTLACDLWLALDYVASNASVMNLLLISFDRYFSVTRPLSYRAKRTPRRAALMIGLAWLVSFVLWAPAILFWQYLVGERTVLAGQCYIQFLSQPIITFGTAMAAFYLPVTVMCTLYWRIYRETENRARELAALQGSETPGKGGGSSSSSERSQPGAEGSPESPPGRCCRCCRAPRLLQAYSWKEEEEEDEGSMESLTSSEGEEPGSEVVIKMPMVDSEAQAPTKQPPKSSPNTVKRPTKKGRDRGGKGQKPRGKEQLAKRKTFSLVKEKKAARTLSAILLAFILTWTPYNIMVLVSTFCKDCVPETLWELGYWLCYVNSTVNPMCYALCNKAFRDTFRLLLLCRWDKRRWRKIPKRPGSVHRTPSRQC
Source text: Furthermore the pharmacological properties of the compounds of the invention can also be illustrated by determining their capability to inhibit ^3 H-PRZ (pirenzepine, [N-methyl-^3 H]) binding to rat cerebral cortex membranes.
Pirenzepine binds selectively to subtype of muscarinic receptors. Historically the type is named the M1 -site, whereas pirenzepine sensitive site would be more appropriate. Although selective for M1 -sites pirenzepine also interact with M2 -sites.
All preparations are performed at 0-4° C. unless otherwise indicated. Fresh cortex (0.1-1 g) from male Wistar rats (150-200 g) is homogenized for 5-10 s. in 10 ml 20 mM Hepes pH: 7.4, with an Ultra-Turraxhomogenizer. The homogenizer is rinzed with 2×10 ml of buffer and the combined suspension centrifuged for 15 min at 40,000 xg. The pellet is washed three times with buffer. In each step the pellet is homogenized as before in 3×10 ml of buffer and centrifuged for 10 min at 40,000 xg.
The final pellet is homogenized in 20 mM Hepes pH: 7.4 (100 ml per g of original tissue) and used for binding assay. Aliquots of 0.5 ml is added 20 μl of test solution and 25 μl of ^3 H-Pirenzepine·(1.0 nM, final conc.), mixed and incubated for 60 min at 20° C. Non-specific binding is determined in triplicate using atropine (1 μg/ml, final conc.) as the test substance. After incubation samples are added 5 ml of ice-cold buffer and poured directly onto Whatman GF/C glass fiber filters inder suction and immediately washed 2 times with 5 ml of ice-cold buffer. The amount of radioactivity on the filters are determined by conventional liquid scintillation counting. Specific binding is total binding minus non-specific binding.
Test substances are dissolved in 10 ml water, at a concentration of 0.22 mg/ml. 25-75% inhibition of specific binding must be obtained before calculation of IC50.
The test value will be given as IC50 (the concentration, nM) of the test substance which inhibits the specific binding of ^3 H-PRZ by 50%.
as §1

| Compound | IC50 [1] | IC50 [2] |
| --- | --- | --- |
| CCCCSc1nsnc1[C@H]1C[N@@+]2(C)CCC[C@@H]1C2 (relative stereo) [Compound 5, Endo 6-(3-Butylthio-1,2,5-thiadiazol-4-yl)-1-methyl-1-azabicyclo[3.2.1]octane iodide] | 3.3 nM | 8.8 nM |
| CCOc1nsnc1C1=CCC[N+](C)(CC)C1 (centres unmarked) [Compound 10, 3-(3-Ethoxy-1,2,5-thiadiazol-4-yl)-1,2,5,6-tetrahydro-1-ethyl-1-methyl-pyridinium iodide] | 15.5 nM | 56 nM |
| CCCCCCOc1nsnc1C1=CCC[N+](C)(C)C1 [Compound 2, 3-(3-Hexyloxy-1,2,5-thiadiazol-4-yl)-1,2,5,6-tetrahydro-1,1-dimethylpyridinium iodide] | 3.3 nM | 9 nM |
| CCSc1nsnc1C1=CCC[N+](C)(CC)C1 (centres unmarked) [Compound 8, 3-(3-Ethylthio-1,2,5-thiadiazol-4-yl)-1,2,5,6-tetrahydro-1-ethyl-1-methylpyridinium iodide] | 3.5 nM | 28 nM |
| CCCCCCSc1nsnc1C1=CCC[N+](C)(C)C1 [Compound 1, 3-(3-Hexylthio-1,2,5-thiadiazol-4-yl)-1,2,5,6-tetrahydro-1,1-dimethylpyridinium iodide] | 3.4 nM | 6 nM |
| C[N+]12CCCC(C1)C(c1nsnc1OCC#Cc1ccsc1)C2 (single isomer, unassigned) [Compound 11, Exo(+) 6-(3-(3-(3-Thienyl)-2-propyn-1-yloxy)-1,2,5-thiadiazol-4-yl)-1-azabicyclo[3.2.1]-octane iodide] | 35 nM |  |
| CCSc1nsnc1C1=CCC[N+](C)(C)C1 [Compound 9, 3-(3-Ethylthio-1,2,5-thiadiazol-4-yl)-1,2,5,6-tetrahydro-1,1-dimethylpyridinium iodide] | 1.6 nM | 26 nM |
| C[N+]12CCCC(C1)C(c1nsnc1SCC#Cc1ccccc1)C2 (single isomer, unassigned) [Compound 13, Exo(+) 6-(3-(3-(3-Phenyl)-2-propyn-1-ylthio)-1,2,5-thiadiazol-4-yl)-1-azabicyclo[3.2.1]-octane iodide] | 13 nM |  |
| CCCCCSc1nsnc1[C@H]1C[N@@+]2(C)CCC[C@@H]1C2 (relative stereo) [Compound 6, Endo 6-(3-Pentylthio-1,2,5-thiadiazol-4-yl)-1-methyl-1-azabicyclo[3.2.1]octane iodide] | 4.8 nM | 2.3 nM |
| CCCCSc1nsnc1C1C[N+]2(C)CCC1CC2 (centres unmarked) [Compound 4, 3-(3-Butylthio-1,2,5-thiadiazol-4-yl)-1-methyl-1-azabicyclo[2.2.2]octane iodide] | 1.5 nM | 4.9 nM |
| C[N+]12CCCC(C1)C(c1nsnc1OCC#Cc1cccs1)C2 (single isomer, unassigned) [Compound 12, Exo(+) 6-(3-(3-(2-Thienyl)-2-propyn-1-yloxy)-1,2,5-thiadiazol-4-yl)-1-azabicyclo[3.2.1]-octane iodide] | 63 nM |  |
| CCCCCSc1nsnc1[C@@H]1C[N@@+]2(C)CCC[C@@H]1C2 (relative stereo) [Compound 7, Exo 6-(3-Pentylthio-1,2,5-thiadiazol-4-yl)-1-methyl-1-azabicyclo[3.2.1]octane iodide] | 4.9 nM | 135 nM |
| CCOc1nsnc1C1=CCC[N+](C)(C)C1 [Compound 3, 3-(3-Ethoxy-1,2,5-thiadiazol-4-yl)-1,2,5,6-tetrahydro-1,1-dimethylpyridinium iodide] | 0.59 nM | 4.5 nM |
